Each structure is given as a SMILES string.

One assay addresses T1, receptors D4.4 (Homo sapiens, UniProt P21917).
T1 sequence (P21917 1-419): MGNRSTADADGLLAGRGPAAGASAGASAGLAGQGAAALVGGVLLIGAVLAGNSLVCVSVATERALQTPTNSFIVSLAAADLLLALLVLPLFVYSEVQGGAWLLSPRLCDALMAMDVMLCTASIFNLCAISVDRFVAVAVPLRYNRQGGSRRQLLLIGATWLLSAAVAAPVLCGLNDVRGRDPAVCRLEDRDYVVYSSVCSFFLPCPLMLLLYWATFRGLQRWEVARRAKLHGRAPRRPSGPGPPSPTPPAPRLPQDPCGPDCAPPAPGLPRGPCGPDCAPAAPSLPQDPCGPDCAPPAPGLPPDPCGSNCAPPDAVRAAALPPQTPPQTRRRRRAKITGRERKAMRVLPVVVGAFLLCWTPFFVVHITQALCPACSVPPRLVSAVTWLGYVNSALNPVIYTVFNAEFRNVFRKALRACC
Nature of the assay: Radioligand binding assay, dopaminergic D4 (D4.4) receptors. The following applies: test compound 1×10^−6 M. The gist of the method:
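Competition radioligand binding at human D2, D3 and D4.4 receptors, detected by scintillation counting; nonspecific binding defined with excess unlabelled ligand. Results as percent inhibition of control specific binding; IC50 by Hill-equation nonlinear regression; Ki via Cheng-Prusoff, with radioligand KD from Scatchard plot.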

Assay [1] deals with α1 adrenergic receptors (rat cerebral cortex). Nature of the assay: Radioligand binding assay, adrenergic α1 receptors. Particulars: test compound 1×10^−6 M. The gist of the method: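 Values derive from radioligand displacement, with non-specific binding defined by excess cold ligand and detection by scintillation. Hill-fit IC50s were converted to Ki via Cheng-Prusoff using Scatchard-derived Kd; percent inhibition of control specific binding also reported.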

The target in another assay is T2, M3 muscarinic receptors (Homo sapiens, UniProt P20309).
T2 construct: expressed in transfected cells; host or cells: CHO cells
T2 sequence (P20309 whole entry): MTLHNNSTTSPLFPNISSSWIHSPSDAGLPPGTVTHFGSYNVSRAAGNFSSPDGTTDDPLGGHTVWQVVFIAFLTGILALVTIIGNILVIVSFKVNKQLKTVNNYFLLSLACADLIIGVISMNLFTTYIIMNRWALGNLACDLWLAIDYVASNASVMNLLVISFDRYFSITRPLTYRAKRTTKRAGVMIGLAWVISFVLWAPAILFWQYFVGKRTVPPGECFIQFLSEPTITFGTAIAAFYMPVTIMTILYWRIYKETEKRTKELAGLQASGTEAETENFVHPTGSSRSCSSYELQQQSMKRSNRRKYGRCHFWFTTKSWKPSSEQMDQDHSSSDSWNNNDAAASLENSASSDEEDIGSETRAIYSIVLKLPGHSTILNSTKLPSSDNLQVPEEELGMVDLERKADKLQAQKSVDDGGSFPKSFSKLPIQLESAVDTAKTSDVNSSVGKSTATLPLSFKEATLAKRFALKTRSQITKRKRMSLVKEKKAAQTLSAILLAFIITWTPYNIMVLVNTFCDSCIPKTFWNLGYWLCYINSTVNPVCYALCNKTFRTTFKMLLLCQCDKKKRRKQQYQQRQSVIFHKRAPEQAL
Nature of the assay: Radioligand binding assay, muscarinic M3 receptors. The following applies: test compound 1×10^−6 M. Summed up:
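Radioligand competition binding, detected by scintillation counting; non-specific binding defined with excess unlabelled ligand. Results given as % inhibition of control specific binding; IC50 from Hill-equation fit of competition curves, Ki via Cheng-Prusoff with radioligand KD from Scatchard plot.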

Assay [2] deals with dopaminergic receptors D2 (Homo sapiens, UniProt P14416). Nature of the assay: Radioligand binding assay, dopaminergic D2 receptors. Particulars: for D2 [%] / inhibition at 1 µM: binding assay, test compound 1×10^−6 M; for Ki: read-out: Inhibition constants Ki for D2 receptors, D2. Summed up: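 Total binding is counted by scintillation and non-specific binding subtracted using an excess of unlabelled ligand. IC50 comes from a Hill-equation fit with slope factor; Ki follows Cheng–Prusoff.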
Chain of dopaminergic receptors D2 (P14416 whole entry): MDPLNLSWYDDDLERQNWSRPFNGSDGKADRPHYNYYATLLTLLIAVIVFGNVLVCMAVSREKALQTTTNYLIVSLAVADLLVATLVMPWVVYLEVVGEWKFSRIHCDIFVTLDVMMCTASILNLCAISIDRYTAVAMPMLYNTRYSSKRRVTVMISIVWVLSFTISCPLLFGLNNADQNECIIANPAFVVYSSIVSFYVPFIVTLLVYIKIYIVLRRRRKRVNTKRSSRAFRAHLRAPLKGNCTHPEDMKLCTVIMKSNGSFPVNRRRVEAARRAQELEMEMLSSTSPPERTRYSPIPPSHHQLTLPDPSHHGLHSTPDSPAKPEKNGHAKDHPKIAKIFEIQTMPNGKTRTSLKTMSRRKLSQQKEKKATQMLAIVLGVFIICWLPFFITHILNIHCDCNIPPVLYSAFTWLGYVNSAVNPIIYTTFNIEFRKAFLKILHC

For a further assay, the target named is T3, 5-HT6 receptor (Homo sapiens, UniProt P50406).
T3 construct: purchased PerkinElmer
T3 sequence (P50406 whole entry): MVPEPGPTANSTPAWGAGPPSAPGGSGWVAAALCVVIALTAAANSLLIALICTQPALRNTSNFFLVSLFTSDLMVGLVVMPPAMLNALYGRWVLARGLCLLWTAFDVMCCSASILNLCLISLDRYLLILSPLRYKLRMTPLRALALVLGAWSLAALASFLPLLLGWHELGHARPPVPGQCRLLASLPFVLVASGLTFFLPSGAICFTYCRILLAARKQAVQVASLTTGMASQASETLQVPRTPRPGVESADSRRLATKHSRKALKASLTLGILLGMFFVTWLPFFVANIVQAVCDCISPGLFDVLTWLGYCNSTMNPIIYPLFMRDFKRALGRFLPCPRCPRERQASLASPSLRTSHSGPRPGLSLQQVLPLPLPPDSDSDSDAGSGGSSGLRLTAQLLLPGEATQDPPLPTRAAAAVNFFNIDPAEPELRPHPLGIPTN
Nature of the assay: Radioligand binding assay, serotoninergic 5-HT6 receptors. The following applies: for 5-HT6 [%] / inhibition at 1 µM: binding assay result in %, Table 5a; for Ki: read-out: Inhibition constants Ki, 5-HT6. The gist of the method:
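Values are Ki from Cheng–Prusoff, taking IC50 from Hill nonlinear regression of competition curves and KD from a Scatchard plot. Specific binding was total minus binding with excess unlabelled ligand. Radioligand displacement was detected by scintillation counting, and data were also reported as percent of control specific binding.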

Another assay concerns the target T4, 5-HT2C receptor (Homo sapiens, UniProt P28335).
T4 construct: expressed in transfected cells; host or cells: HEK-293 cells
T4 sequence (P28335 33-458): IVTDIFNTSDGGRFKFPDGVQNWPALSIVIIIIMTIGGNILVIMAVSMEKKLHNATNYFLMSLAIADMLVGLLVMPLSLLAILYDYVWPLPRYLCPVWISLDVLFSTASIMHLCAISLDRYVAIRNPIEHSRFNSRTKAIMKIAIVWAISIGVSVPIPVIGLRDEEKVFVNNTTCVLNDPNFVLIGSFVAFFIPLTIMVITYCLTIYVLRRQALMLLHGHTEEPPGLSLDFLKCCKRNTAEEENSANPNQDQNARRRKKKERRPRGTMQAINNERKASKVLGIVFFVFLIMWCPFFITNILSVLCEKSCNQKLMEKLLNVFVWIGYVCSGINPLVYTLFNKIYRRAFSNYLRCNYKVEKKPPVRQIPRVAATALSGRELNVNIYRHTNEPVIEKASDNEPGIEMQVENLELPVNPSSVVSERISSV
Nature of the assay: Radioligand binding assay, serotoninergic 5-HT2C receptors. The following applies: test compound 1×10^−6 M.

Assay [3] concerns the target T5, serotonin transporter (SERT) (Homo sapiens, UniProt P31645).
T5 construct: expressed in transfected cells; host or cells: CHO cells
Nature of the assay: Radioligand binding assay, serotonin transporter (SERT). The following applies: binding assay, test compound 1×10^−6 M. The gist of the method: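 Radioligand competition binding with scintillation detection; specific binding is total minus binding under excess unlabelled ligand. Reported as % of control specific binding or % inhibition; IC50 from Hill-equation non-linear regression of competition curves, and Ki via Cheng-Prusoff using radioligand concentration and Scatchard-derived KD.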

T5 sequence (P31645 whole entry): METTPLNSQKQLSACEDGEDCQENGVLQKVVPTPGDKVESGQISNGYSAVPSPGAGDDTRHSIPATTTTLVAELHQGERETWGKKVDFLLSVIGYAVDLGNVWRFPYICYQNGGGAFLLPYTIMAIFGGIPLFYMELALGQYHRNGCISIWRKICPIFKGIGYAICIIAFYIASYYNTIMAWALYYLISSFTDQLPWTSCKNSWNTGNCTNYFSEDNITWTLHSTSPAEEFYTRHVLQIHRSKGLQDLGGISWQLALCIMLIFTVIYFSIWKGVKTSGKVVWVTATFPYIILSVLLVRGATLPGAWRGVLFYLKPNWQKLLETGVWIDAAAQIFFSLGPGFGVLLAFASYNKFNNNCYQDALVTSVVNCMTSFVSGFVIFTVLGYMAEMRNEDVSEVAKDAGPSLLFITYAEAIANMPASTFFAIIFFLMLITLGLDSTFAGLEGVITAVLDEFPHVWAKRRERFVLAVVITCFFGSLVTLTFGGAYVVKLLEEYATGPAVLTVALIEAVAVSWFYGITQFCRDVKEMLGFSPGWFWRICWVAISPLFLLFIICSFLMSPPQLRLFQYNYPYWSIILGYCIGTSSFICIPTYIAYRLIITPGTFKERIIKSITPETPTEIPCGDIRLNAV

Broadly, the inhibition is the relative decrease from the control value, in per cent. One may read the Ki as a dissociation constant, usually derived from enzyme kinetics or from competition with a known ligand. As for `O=S(=O)(NCC1CN(CCCc2noc3cc(F)ccc23)C1)c1cc2ccccc2s1` [Compound 127, N-[[1-[3-(6-Fluoro-1,2-benzoxazol-3-yl)propyl]azetidin-3-yl]methyl]benzo-thiophene-2-sulphonamide], the inhibition at 1 µM worked out at 55% at receptors D4.4, 1% on M3 muscarinic receptors and 84% on 5-HT2C receptor. Further, in assay [1], the “α1 [%]” value is given as 93%. For the same compound, the “D2 [%]” value in assay [2] was found to be 95%. The Ki amounted to 22 nM in assay [2] and 18 nM on 5-HT6 receptor. For the same compound, at 5-HT6 receptor, the “5-HT6 [%]” value is on record as 96%. For the same compound, the “SERT [%]” value in assay [3] amounted to 49%.

For the compound `O=S(=O)(NCC1CCN(CCOc2cccc3c2OCCO3)C1)c1cccc(O)c1` (centres unmarked) [Compound 303, N-[[1-[2-(2,3-Dihydro-1,4-benzodioxin-5-yloxy)ethyl]pyrrolidin-3-yl]-methyl]-3-hydroxy-benzenesulphonamide], the inhibition at 1 µM was determined as 39% on receptors D4.4; 9% on M3 muscarinic receptors; 79% in assay [2]; 48% at 5-HT6 receptor; 47% at 5-HT2C receptor; 73% in assay [3]. Besides, the “α1 [%]” value in assay [1] worked out at 89%.

On to `CC1(C)Cc2cccc(OCCN3CCC(NS(=O)(=O)c4ccc5ccccc5c4)CC3)c2O1` [Compound 110, N-[1-[2-[(2,2-Dimethyl-3H-benzofuran-7-yl)oxy]ethyl]-4-piperidine]naphthalene-2-sulphonamide], for which the “D4.4 [%]” value at receptors D4.4 is listed as 42%. In addition, in assay [1], the “α1 [%]” value turned out to be 45%. Further, the “M3 [%]” value at M3 muscarinic receptors is −7%. Further, in assay [2], the “D2 [%]” value was found to be 74%. In addition, at 5-HT6 receptor, the “5-HT6 [%]” value is listed as −60%. Also, the “5-HT2C [%]” value on 5-HT2C receptor came to 85%. Moreover, in assay [3], the “SERT [%]” value was 39%.

Turning to `O=S(=O)(N[C@H]1CCN(CCCc2noc3cc(F)ccc23)C1)c1csc2ccccc12` [Compound 225, N-[(3S)-1-[3-(6-Fluoro-1,2-benzoxazol-3-yl)propyl]pyrrolidin-3-yl]benzothiophene-3-sulphonamide], the inhibition at 1 µM turned out to be 91% on receptors D4.4; 23% at M3 muscarinic receptors; 97% in assay [2]; 99% at 5-HT6 receptor; 72% at 5-HT2C receptor; 77% in assay [3]. Moreover, the “α1 [%]” value in assay [1] is on record as 93%. Moreover, the inhibition constant Ki in assay [2] is 9.2 nM; at 5-HT6 receptor, 1.6 nM.
